Values quoted from earlier work in article PMC8875686, “Oral Formulation Based on Irbesartan Nanocrystals Improve Drug Solubility, Absorbability, and Efficacy” (Pharmaceutics, 2022).
Converted amounts (≈) assume the structure as drawn.

Experiments:
[1] = room temperature
[2] = oral administration

CCCCC1=NC2(CCCC2)C(=O)N1Cc1ccc(-c2ccccc2-c2nnn[nH]2)cc1 [form A]
solubility [1]: approximately 0.011 mg/mL

CCCCC1=NC2(CCCC2)C(=O)N1Cc1ccc(-c2ccccc2-c2nnn[nH]2)cc1 [form B]
solubility [1]: ~0.6 µg/mL (≈ 1.4 µM)

CCCCC1=NC2(CCCC2)C(=O)N1Cc1ccc(-c2ccccc2-c2nnn[nH]2)cc1 [IRB, Irbesartan]
average absolute bioavailability (BA) [2]: 60–80%
time of Cmax (peak plasma concentrations) [2]: 1.5 to 2 h
